The source of these data is PubChem BioAssay (NCI).

Values joined by “and” are separate entries in the source; they are usually repeats but may differ in a detail not shown here. Identical values can stand only once.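 Compound exposure: 48 hours, 5 concentrations, 96-well plates. GI50 marks 50% less growth. At the TGI there is no net growth.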

Test systems include SF-295 CNS; NCI-H522 lung; HT29 colon; CCRF-CEM leukemia; HOP-62 NSCLC; IGROV1 ovarian; SF-268 CNS; K-562 leukemia; SK-MEL-28 melanoma.
Test in all cases: growth of human tumour cells (NCI), 48 h

On to `CCOC(=O)/C(C1=NCCN1)=C(\O)c1ccccc1`, for which the TGI with SF-295 CNS, in the assay with NCI-H522 lung, with HT29 colon, in the assay on CCRF-CEM leukemia, with HOP-62 NSCLC and in the assay on IGROV1 ovarian was over 100 µM throughout. The TGI in the assay on SF-268 CNS, with K-562 leukemia and with SK-MEL-28 melanoma was over 100 µM throughout.

For `CC1(C)CC(O)C(C)(C)[C@@H](O)C1` (stereo partly specified), the TGI in the assay with SF-295 CNS, in the assay on NCI-H522 lung, in the assay on HT29 colon, with CCRF-CEM leukemia, in the assay on HOP-62 NSCLC and in the assay on IGROV1 ovarian was over 100 µM throughout. Besides, the TGI in the assay with SF-268 CNS, in the assay with K-562 leukemia and with SK-MEL-28 melanoma was over 100 µM in each case.

Take `OC1(C23CC4CC(CC(C4)C2)C3)CSCC1(O)C12CC3CC(CC(C3)C1)C2` (stereo unspecified): the TGI is over 100 µM with SF-295 CNS; over 100 µM in the assay with NCI-H522 lung; over 100 µM with HT29 colon; over 10 µM in the assay with CCRF-CEM leukemia; over 100 µM in the assay on HOP-62 NSCLC; over 100 µM in the assay on IGROV1 ovarian. Further, the TGI with SF-268 CNS, with K-562 leukemia and with SK-MEL-28 melanoma was over 100 µM in each case.

Consider `CC[C@@]1(O)C(=O)OCc2c1cc1n(c2=O)Cc2cc3cc4c(cc3nc2-1)OCO4`, for which the TGI is 0.025 µM in the assay with SF-295 CNS; 0.113 µM with NCI-H522 lung; 0.0152 µM and < 0.0414 µM in the assay with CCRF-CEM leukemia; 0.187 µM in the assay with IGROV1 ovarian; over 100 µM with K-562 leukemia. The GI50 is under 0.0341 µM in the assay on IGROV1 ovarian, under 0.0114 µM in the assay on K-562 leukemia and 0.0971 µM with SK-MEL-28 melanoma.

On to `COc1ccc(CCN2CC=Cn3c2nc2ccccc2c3=O)cc1`, for which the GI50 is 0.0269 µM in the assay with SF-295 CNS; 0.0113 µM in the assay on NCI-H522 lung; 0.0319 µM in the assay with HT29 colon; 0.03 µM in the assay with CCRF-CEM leukemia; 0.0346 µM in the assay on HOP-62 NSCLC; 0.0509 µM in the assay with IGROV1 ovarian. The GI50 in the assay with SF-268 CNS is 0.104 µM; in the assay on K-562 leukemia, 0.0203 µM; with SK-MEL-28 melanoma, 0.694 µM. The TGI in the assay with SF-295 CNS is over 100 µM; in the assay on NCI-H522 lung, 0.0375 µM; in the assay on HT29 colon, 27.4 µM; with CCRF-CEM leukemia it was over 100 µM; in the assay with HOP-62 NSCLC, over 64 µM; in the assay on IGROV1 ovarian, over 50.3 µM. For the same compound, the TGI in the assay with SF-268 CNS was over 60.8 µM; with K-562 leukemia, over 100 µM; in the assay with SK-MEL-28 melanoma, over 100 µM.

Take `NC(=O)CN(CC(N)=O)C(N)=O`: the TGI in the assay with SF-295 CNS, with NCI-H522 lung, with HT29 colon, with CCRF-CEM leukemia, in the assay with IGROV1 ovarian and in the assay with SF-268 CNS was over 100 µM throughout. Further, the TGI with K-562 leukemia and in the assay on SK-MEL-28 melanoma was over 100 µM in each case.

On to `Cc1ccc2c(c1)-c1c3c(nn1-c1ccccc1)-c1ccccc1SC3O2` (stereo unspecified), for which the TGI in the assay with SF-295 CNS, in the assay on NCI-H522 lung, with HT29 colon, with CCRF-CEM leukemia, with HOP-62 NSCLC and in the assay on IGROV1 ovarian was over 100 µM throughout. In addition, the TGI with SF-268 CNS, in the assay on K-562 leukemia and with SK-MEL-28 melanoma was over 100 µM in each case.

In the case of `C[C@@]12CCC(=O)c3coc(c31)C(=O)c1cc3c(cc12)C(=O)C=CC3=O`, the GI50 in the assay on SF-295 CNS, in the assay with NCI-H522 lung, in the assay with HT29 colon, in the assay on HOP-62 NSCLC, in the assay on IGROV1 ovarian and in the assay with SF-268 CNS was over 1 µM throughout. Besides, the GI50 in the assay on K-562 leukemia and in the assay on SK-MEL-28 melanoma was over 1 µM in each case. The TGI with SF-295 CNS is > 1 µM and 31.1 µM; in the assay on NCI-H522 lung, > 1 µM and 22.1 µM; in the assay on HT29 colon it was > 1 µM and 39.7 µM; with CCRF-CEM leukemia, over 23.2 µM; with HOP-62 NSCLC, over 100 µM; in the assay with IGROV1 ovarian it was > 1 µM and 59.3 µM. Further, the TGI is > 1 µM and 38 µM in the assay on SF-268 CNS; over 56.9 µM with K-562 leukemia; > 1 µM and 29.9 µM in the assay with SK-MEL-28 melanoma.

`COc1ccc2c(c1)C(=O)c1ccc(OC)cc1C2=S`: the TGI in the assay with SF-295 CNS, with NCI-H522 lung, with HT29 colon, with CCRF-CEM leukemia, with HOP-62 NSCLC and in the assay on IGROV1 ovarian was over 100 µM throughout. Besides, the TGI in the assay with SF-268 CNS, in the assay on K-562 leukemia and with SK-MEL-28 melanoma was over 100 µM each time.

On to `CCCCCCCCCCCCCCCC(=O)OCC1OC(n2cc(F)c(=O)[nH]c2=O)C(N)C(O)C1O` (stereo unspecified), for which the TGI with SF-295 CNS is 31.1 µM; in the assay with NCI-H522 lung, 31.7 µM; in the assay with HT29 colon, 42.1 µM; in the assay on CCRF-CEM leukemia it was 31.7 µM; in the assay with HOP-62 NSCLC, 37.4 µM; with SF-268 CNS it was 35.2 µM. Moreover, the TGI with K-562 leukemia is 32.8 µM; in the assay on SK-MEL-28 melanoma, 31.1 µM.

For `CC(CN(C)C)/C(=N\Nc1ccccc1)c1ccccc1` (stereo unspecified), the TGI in the assay on SF-295 CNS is 0.358 µM; in the assay with NCI-H522 lung it was 25.1 µM; with HT29 colon, 17.9 µM; in the assay with CCRF-CEM leukemia it was 29.3 µM; in the assay with HOP-62 NSCLC, 12 µM; in the assay with IGROV1 ovarian it was over 100 µM. For the same compound, the TGI stood at 16.6 µM in the assay with SF-268 CNS, 0.527 µM in the assay with K-562 leukemia and 5.79 µM in the assay on SK-MEL-28 melanoma.

`CC1=NN(C(=O)c2ccccc2O)C(=O)/C1=C/c1ccc(O)cc1`: the TGI in the assay with SF-295 CNS is over 100 µM; in the assay with NCI-H522 lung it was 17.4 µM; in the assay with HT29 colon, over 100 µM; with CCRF-CEM leukemia it was over 100 µM; in the assay on HOP-62 NSCLC it was over 100 µM; in the assay on IGROV1 ovarian, 5.03 µM. Moreover, the TGI with SF-268 CNS, in the assay on K-562 leukemia and with SK-MEL-28 melanoma was over 100 µM in each case.

Consider `O=[N+]([O-])c1ccc(-n2nnc(C3=NCCN3)c2-c2ccccc2)cc1`, for which the TGI with SF-295 CNS, in the assay with NCI-H522 lung, in the assay with HT29 colon, in the assay with CCRF-CEM leukemia, with HOP-62 NSCLC and in the assay with IGROV1 ovarian was over 100 µM throughout. For the same compound, the TGI with SF-268 CNS, with K-562 leukemia and in the assay on SK-MEL-28 melanoma was over 100 µM each time.
